The source of these data is US8853418B2, “Cyclopentylpyrazoles as N-type calcium channel blockers” (Janssen Pharmaceutica NV, priority 2012, dated 2014).

As usually defined, the inhibition is the drop in the measured response relative to a control, in per cent. As a reminder, the IC50 is the point on the concentration scale where inhibition reaches its midpoint.

Read-outs that look alike come from different tables or passages of the source.

The target of assay [1] is N-type calcium channel (Homo sapiens, UniProt Q00975). As to the kind of experiment: Automated Electrophysiology Assay (QPatch-HT whole-cell patch clamp; low- and high-frequency stimulation). Format: cell-based. A general note: The patch-clamp technique gives a direct electrical read-out from membranes.
The target in assay [2] is N-type calcium channel (α1B (Cav2.2), β3 and α2δ subunits) (Homo sapiens, UniProt Q00975). In words: Functional Assay: Antagonism of N-Type Calcium Channel (FDSS calcium mobilization, KCl depolarization). Format: cell-based. Conditions: for IC50: HEK cell line, 50 mM KCl depolarization, six-point concentration-response, read-out: FDSS IC50. The procedure:
A stable cell line (HEK parent) co-expressing the α1B (Cav2.2), β3 and α2δ subunits of the N-type calcium channel subunits was used. These cells were routinely grown as monolayers in low glucose-containing Dulbecco's Modified Eagle Medium supplemented with 10% FBS, 2 mM L-glutamine, 100 I.U./mL penicillin, 100 μg/mL streptomycin, 400 μg/mL G418 and 200 μg/mL Zeocin (split ratio=1:5). Cells were maintained in 5% CO2 at 37° C. Compounds of Formula (I) were prepared as 10 mM stocks in DMSO from neat compound, if available. Otherwise, the 5 or 10 mM DMSO stock solutions provided in-house were used.
Calcium mobilization responses to KCl depolarization were evaluated by measuring the intensity of calcium-mediated fluorescent signal in the presence of BD Calcium Assay Dye (BD Biosciences, Franklin Lakes, N.J., U.S.A.), utilizing a Functional Drug Screening System (FDSS) by Hamamatsu Corporation (Bridgewater, N.J. U.S.A.).
Twenty-four hr prior to assay, cells were seeded in clear-base poly-D-lysine-coated 384-well plates (BD Biosciences) at a density of 5,000 cells per well in culture medium and grown overnight in 5% CO2 at 37° C. On the day of assay, growth media were removed, and cells were loaded with BD calcium assay dye (BD Biosciences) for 35 min at 37° C. under 5% CO2 and then for 25 min at room temp. Utilizing the FDSS, cells were exposed to representative compounds of Formula (I) at varying concentrations, and intracellular calcium was measured for 5 min prior to the addition of 50 mM KCl for an additional 3 min of measurement.
Calculations and Formulas
IC50 values for representative compounds of Formula (I) were determined from six-point concentration-response experiments and represent the concentration of said compound required to inhibit 50% of the maximal response. Maximal fluorescence intensity (FI) achieved upon addition of 50 mM KCl was exported from the FDSS software and further analyzed using GraphPad Prism 3.02 (Graph Pad Software Inc., San Diego, Calif., U.S.A.). Data were normalized to the maximum average counts from quadruplicate wells for each condition in the presence of 50 mM KCl and to the minimum average counts in the presence of buffer. Theoretical curves were generated using nonlinear regression curve-fitting analysis of either sigmoidal concentration-response or sigmoidal concentration-response (variable slope), and the IC50 values with the best-fit curve determined by GraphPad Prism were reported.
Background: Calcium assays in cells follow changes in intracellular calcium, usually with a dye or a luminescent sensor.

The mark [3] stands for this setting: high-frequency stimulation (15th pulse), read-out: QPatch at High Frequency % Inhibition.
Setting [4] is: low frequency, read-out: QPatch at Low Frequency % Inhibition.

N-type calcium channel, sequence (Q00975 whole entry): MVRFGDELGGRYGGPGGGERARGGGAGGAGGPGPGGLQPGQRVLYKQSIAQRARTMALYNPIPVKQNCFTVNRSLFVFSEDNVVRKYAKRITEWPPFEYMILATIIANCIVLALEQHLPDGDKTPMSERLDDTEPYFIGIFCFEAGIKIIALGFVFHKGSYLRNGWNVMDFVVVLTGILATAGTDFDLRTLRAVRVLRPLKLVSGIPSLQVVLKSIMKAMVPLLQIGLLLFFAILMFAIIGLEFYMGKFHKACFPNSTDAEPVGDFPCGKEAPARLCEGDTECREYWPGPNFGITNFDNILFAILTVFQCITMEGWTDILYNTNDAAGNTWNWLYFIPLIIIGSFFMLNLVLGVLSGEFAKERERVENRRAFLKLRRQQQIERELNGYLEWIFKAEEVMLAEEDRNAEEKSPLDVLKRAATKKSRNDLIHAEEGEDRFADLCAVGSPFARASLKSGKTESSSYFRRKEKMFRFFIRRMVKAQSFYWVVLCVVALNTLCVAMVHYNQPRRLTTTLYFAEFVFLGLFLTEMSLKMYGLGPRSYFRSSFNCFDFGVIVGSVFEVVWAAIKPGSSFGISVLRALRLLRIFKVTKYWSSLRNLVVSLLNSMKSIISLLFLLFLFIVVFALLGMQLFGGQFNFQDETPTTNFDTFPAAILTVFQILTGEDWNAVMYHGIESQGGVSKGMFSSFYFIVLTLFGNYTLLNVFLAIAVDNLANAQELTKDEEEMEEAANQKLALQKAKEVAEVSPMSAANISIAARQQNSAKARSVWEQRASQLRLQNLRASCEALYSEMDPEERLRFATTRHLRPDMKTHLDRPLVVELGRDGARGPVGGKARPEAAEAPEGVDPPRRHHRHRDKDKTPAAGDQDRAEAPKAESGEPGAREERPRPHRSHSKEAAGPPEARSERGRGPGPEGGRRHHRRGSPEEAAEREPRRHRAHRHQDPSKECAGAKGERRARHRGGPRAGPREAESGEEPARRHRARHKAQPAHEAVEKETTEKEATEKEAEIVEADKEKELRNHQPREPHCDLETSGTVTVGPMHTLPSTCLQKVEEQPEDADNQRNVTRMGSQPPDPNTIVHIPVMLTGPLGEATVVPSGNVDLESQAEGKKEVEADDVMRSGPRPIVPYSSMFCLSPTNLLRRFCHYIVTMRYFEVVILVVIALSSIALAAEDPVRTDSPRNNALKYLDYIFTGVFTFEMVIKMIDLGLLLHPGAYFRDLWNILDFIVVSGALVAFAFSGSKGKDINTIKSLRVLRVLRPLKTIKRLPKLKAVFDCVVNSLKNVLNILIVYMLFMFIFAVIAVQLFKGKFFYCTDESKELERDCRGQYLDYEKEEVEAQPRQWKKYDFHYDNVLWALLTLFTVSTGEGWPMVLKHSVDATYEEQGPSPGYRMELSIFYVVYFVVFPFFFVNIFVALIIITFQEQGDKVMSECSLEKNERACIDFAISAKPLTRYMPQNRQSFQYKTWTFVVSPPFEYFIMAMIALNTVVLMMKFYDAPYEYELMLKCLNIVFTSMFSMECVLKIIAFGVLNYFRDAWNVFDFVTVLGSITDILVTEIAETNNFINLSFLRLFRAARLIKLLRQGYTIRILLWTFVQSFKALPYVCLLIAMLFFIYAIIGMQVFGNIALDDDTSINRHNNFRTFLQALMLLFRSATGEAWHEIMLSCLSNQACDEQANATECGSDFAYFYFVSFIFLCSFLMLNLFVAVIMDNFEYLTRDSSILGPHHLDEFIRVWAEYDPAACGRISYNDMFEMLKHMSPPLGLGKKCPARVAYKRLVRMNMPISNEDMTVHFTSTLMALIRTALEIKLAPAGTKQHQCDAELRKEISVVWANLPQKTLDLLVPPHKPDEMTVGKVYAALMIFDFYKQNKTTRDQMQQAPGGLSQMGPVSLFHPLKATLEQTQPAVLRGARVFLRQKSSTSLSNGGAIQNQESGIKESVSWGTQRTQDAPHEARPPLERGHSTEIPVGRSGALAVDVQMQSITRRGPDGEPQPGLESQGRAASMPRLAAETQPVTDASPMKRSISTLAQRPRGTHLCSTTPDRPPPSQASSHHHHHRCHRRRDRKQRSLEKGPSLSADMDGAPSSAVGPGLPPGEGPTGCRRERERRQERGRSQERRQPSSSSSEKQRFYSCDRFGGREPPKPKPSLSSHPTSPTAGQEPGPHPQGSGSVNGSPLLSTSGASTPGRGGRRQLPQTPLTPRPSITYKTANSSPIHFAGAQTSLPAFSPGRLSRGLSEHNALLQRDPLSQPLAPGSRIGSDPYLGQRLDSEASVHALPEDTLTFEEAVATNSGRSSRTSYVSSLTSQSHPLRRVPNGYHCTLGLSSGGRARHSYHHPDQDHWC
N-type calcium channel, sequence (P54284 whole entry partner): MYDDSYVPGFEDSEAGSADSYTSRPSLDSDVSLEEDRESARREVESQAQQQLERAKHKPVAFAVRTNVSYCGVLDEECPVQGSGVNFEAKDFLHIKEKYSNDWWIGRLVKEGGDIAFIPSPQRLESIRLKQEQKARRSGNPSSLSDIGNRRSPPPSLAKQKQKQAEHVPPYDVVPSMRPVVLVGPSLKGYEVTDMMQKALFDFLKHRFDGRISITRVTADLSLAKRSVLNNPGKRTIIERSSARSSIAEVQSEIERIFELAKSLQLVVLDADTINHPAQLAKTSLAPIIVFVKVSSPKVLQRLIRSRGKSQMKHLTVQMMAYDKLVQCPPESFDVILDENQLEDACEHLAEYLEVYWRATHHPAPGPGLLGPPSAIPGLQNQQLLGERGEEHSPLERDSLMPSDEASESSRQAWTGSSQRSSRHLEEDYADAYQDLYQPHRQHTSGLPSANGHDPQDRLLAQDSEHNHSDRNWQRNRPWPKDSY
N-type calcium channel, sequence (P54289 25-946 partner limits assumed): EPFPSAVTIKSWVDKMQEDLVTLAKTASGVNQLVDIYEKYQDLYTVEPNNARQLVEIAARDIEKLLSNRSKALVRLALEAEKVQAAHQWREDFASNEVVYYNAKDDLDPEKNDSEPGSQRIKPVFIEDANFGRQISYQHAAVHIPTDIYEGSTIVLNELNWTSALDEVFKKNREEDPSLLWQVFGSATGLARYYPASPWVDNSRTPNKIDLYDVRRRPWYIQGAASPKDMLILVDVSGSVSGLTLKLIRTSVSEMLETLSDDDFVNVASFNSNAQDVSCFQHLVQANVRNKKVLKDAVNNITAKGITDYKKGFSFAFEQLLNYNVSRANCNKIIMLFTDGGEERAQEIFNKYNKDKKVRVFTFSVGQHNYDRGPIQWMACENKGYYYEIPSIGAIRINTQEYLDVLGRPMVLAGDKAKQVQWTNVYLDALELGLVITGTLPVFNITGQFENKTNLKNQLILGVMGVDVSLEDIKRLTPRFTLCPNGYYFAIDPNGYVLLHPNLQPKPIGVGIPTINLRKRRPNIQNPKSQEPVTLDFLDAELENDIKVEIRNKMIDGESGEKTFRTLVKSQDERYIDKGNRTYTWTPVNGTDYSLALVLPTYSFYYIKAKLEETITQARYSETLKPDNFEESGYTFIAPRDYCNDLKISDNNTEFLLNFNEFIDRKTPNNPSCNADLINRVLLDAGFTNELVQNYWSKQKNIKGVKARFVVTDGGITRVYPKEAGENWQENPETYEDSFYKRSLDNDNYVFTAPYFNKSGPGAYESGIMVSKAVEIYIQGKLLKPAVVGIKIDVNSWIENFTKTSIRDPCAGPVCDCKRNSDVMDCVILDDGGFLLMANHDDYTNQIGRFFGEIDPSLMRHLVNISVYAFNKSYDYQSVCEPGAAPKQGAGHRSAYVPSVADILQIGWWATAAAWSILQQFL
N-type calcium channel, sequence (P54289 947-1103 partner limits assumed): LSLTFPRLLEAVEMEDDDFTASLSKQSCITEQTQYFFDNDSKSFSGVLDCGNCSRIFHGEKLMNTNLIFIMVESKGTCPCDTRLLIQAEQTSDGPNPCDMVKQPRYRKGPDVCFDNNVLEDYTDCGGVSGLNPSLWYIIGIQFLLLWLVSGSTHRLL
N-type calcium channel (α1B (Cav2.2), β3 and α2δ subunits), sequence (Q00975 whole entry): as the sequence (Q00975 whole entry) above
N-type calcium channel (α1B (Cav2.2), β3 and α2δ subunits), sequence (P54284 whole entry partner): as the sequence (P54284 whole entry partner) above
N-type calcium channel (α1B (Cav2.2), β3 and α2δ subunits), sequence (P54289 25-946 partner limits assumed): as the sequence (P54289 25-946 partner limits assumed) above
N-type calcium channel (α1B (Cav2.2), β3 and α2δ subunits), sequence (P54289 947-1103 partner limits assumed): as the sequence (P54289 947-1103 partner limits assumed) above

With `COc1ccccc1-n1nc2c(c1-c1ccc(Cl)cc1)CC(CCOC(=O)N1CCOCC1)C2` (stereo not drawn) [Compound 2, 2-[3-(4-chlorophenyl)-2-(2-methoxyphenyl)-2,4,5,6-tetrahydrocyclopenta[c]pyrazol-5-yl]ethyl morpholine-4-carboxylate], in assay [1] (setting [3]), the inhibition at 0.25 µM is 58%, the inhibition at 1 µM stood at 69% and the inhibition at 5 µM came out at 97%. Also, in assay [1] (setting [4]), the inhibition at 0.25 µM is 54%, the inhibition at 1 µM came to 76% and the inhibition at 5 µM turned out to be 90%. Also, the IC50 in assay [2] was determined as 33 nM.

On to `COc1ccccc1-n1nc2c(c1-c1ccc(Cl)cc1)CC(CCOC(=O)N(C)C)C2` (stereo not drawn) [Compound 3, 2-[3-(4-chlorophenyl)-2-(2-methoxyphenyl)-2,4,5,6-tetrahydrocyclopenta[c]pyrazol-5-yl]ethyl dimethylcarbamate], for which, in assay [1] (setting [3]), the inhibition at 0.25 µM was found to be 57%, the inhibition at 1 µM worked out at 76% and the inhibition at 5 µM amounted to 88%. Further, in assay [1] (setting [4]), the inhibition at 0.25 µM is 35%, the inhibition at 1 µM was found to be 69% and the inhibition at 5 µM worked out at 93%. Further, the IC50 in assay [2] amounted to 26 nM.

As to `CCOC(=O)C1Cc2nn(-c3ccccc3OC)c(-c3ccc(Cl)cc3)c2C1` (stereo not drawn) [Compound 5, ethyl 3-(4-chlorophenyl)-2-(2-methoxyphenyl)-2,4,5,6-tetrahydrocyclopenta[c]pyrazole-5-carboxylate], the inhibition at 5 µM in assay [1] (setting [3]) turned out to be 85%; in assay [1] (setting [4]), 82%. The IC50 in assay [2] came to 43 nM.

On to `COc1ccccc1-n1nc2c(c1-c1ccc(Cl)cc1)CC(CNS(C)(=O)=O)C2` (stereo not drawn) [Compound 8, N-{[3-(4-chlorophenyl)-2-(2-methoxyphenyl)-2,4,5,6-tetrahydrocyclopenta[c]pyrazol-5-yl]methyl}methanesulfonamide], for which, in assay [1] (setting [3]), the inhibition at 0.25 µM was -12% and the inhibition at 1 µM came out at 57%. Moreover, in assay [1] (setting [4]), the inhibition at 0.25 µM is -9% and the inhibition at 1 µM was 62%. For the same compound, in assay [2], the inhibition at 0.33 µM was 96% and the IC50 came out at 55 nM.

Turning to `COc1ccccc1-n1nc2c(c1-c1ccc(Cl)cc1)CC(CCNS(C)(=O)=O)C2` (stereo not drawn) [Compound 11, N-{2-[3-(4-chlorophenyl)-2-(2-methoxyphenyl)-2,4,5,6-tetrahydrocyclopenta[c]pyrazol-5-yl]ethyl}methanesulfonamide], in assay [1] (setting [3]), the inhibition at 1 µM was found to be 28%. The inhibition at 1 µM in assay [1] (setting [4]) was 29%. In assay [2], the inhibition at 0.33 µM came out at 99% and the IC50 worked out at 73 nM.

As to `COc1ccccc1-n1nc2c(c1-c1ccc(Cl)cc1)CC(CCNC(C)=O)C2` (stereo not drawn) [Compound 12, N-{2-[3-(4-chlorophenyl)-2-(2-methoxyphenyl)-2,4,5,6-tetrahydrocyclopenta[c]pyrazol-5-yl]ethyl}acetamide], the inhibition at 1 µM is 26% in assay [1] (setting [3]) and 15% in assay [1] (setting [4]). Further, the IC50 in assay [2] amounted to 70 nM.

Regarding `COc1ccccc1-n1nc2c(c1-c1ccc(Cl)s1)CC1(C2)OC(C)(C)C(C)(C)O1` [Compound 121, 3-(5-chlorothiophen-2-yl)-2-(2-methoxyphenyl)-4′,4′,5′,5′-tetramethyl-2,6-dihydro-4H-spiro[cyclopenta[c]pyrazole-5,2′-[1,3]dioxolane]], in assay [2], the inhibition at 0.33 µM amounted to 86% and the IC50 worked out at 30 nM.

For the compound `COc1ccccc1-n1nc2c(c1-c1ccc(Cl)cc1)CC(N1CCCC1)C2` (stereo not drawn) [Compound 122, 3-(4-chlorophenyl)-2-(2-methoxyphenyl)-5-pyrrolidin-1-yl-2,4,5,6-tetrahydrocyclopenta[c]pyrazole], the inhibition at 0.33 µM in assay [2] turned out to be 33%.

For the compound `COC(=O)c1cn([C@@H]2Cc3nn(-c4ccccc4OC)c(-c4ccc(C#N)cc4)c3C2)nn1` [Compound 125, methyl 1-[(5S)-3-(4-cyanophenyl)-2-(2-methoxyphenyl)-2,4,5,6-tetrahydrocyclopenta[c]pyrazol-5-yl]-1H-1,2,3-triazole-4-carboxylate], in assay [2], the inhibition at 0.33 µM was 70% and the IC50 was determined as 81 nM.

As to `COc1ccccc1-n1nc2c(c1-c1ccc(C#N)cc1)C[C@H](n1cc(C(C)(C)O)nn1)C2` [Compound 126, 4-[(5S)-5-[4-(1-hydroxy-1-methylethyl)-1H-1,2,3-triazol-1-yl]-2-(2-methoxyphenyl)-2,4,5,6-tetrahydrocyclopenta[c]pyrazol-3-yl]benzonitrile], the inhibition at 0.33 µM in assay [2] amounted to 33%.

Take `COc1ccccc1-n1nc2c(c1-c1ccc(C#N)cc1)C[C@H](n1cc(COC(C)=O)nn1)C2` [Compound 128, {1-[(5S)-3-(4-cyanophenyl)-2-(2-methoxyphenyl)-2,4,5,6-tetrahydrocyclopenta[c]pyrazol-5-yl]-1H-1,2,3-triazol-4-yl}methyl acetate]: in assay [2], the inhibition at 0.33 µM stood at 59% and the IC50 came to 170 nM.

As to `COCc1cn([C@@H]2Cc3nn(-c4ccccc4OC)c(-c4ccc(C#N)cc4)c3C2)nn1` [Compound 129, 4-[(5S)-5-[4-(methoxymethyl)-1H-1,2,3-triazol-1-yl]-2-(2-methoxyphenyl)-2,4,5,6-tetrahydrocyclopenta[c]pyrazol-3-yl]benzonitrile], the inhibition at 0.33 µM in assay [2] stood at 47%.

Turning to `COc1ccccc1-n1nc2c(c1-c1ccc(C#N)cc1)C[C@H](n1cnc(C)c1C)C2` [Compound 131, 4-[(5S)-5-(4,5-dimethyl-1H-imidazol-1-yl)-2-(2-methoxyphenyl)-2,4,5,6-tetrahydrocyclopenta[c]pyrazol-3-yl]benzonitrile], in assay [2], the inhibition at 0.33 µM came to 67% and the concentration for half-maximal inhibition (IC50) was found to be 105 nM.

Take `COc1ccccc1-n1nc2c(c1-c1ccc(C#N)cc1)C[C@H](n1c(C)nc(C)c1C)C2` [Compound 132, 4-[(5S)-2-(2-methoxyphenyl)-5-(2,4,5-trimethyl-1H-imidazol-1-yl)-2,4,5,6-tetrahydrocyclopenta[c]pyrazol-3-yl]benzonitrile]: the inhibition at 0.33 µM in assay [2] stood at 29%.

As to `CCc1nc(C)c(C)n1[C@@H]1Cc2nn(-c3ccccc3OC)c(-c3ccc(C#N)cc3)c2C1` [Compound 133, 4-[(5S)-5-(2-ethyl-4,5-dimethyl-1H-imidazol-1-yl)-2-(2-methoxyphenyl)-2,4,5,6-tetrahydrocyclopenta[c]pyrazol-3-yl]benzonitrile], the inhibition at 0.33 µM in assay [2] worked out at 35%.

In the case of `CCc1nccn1[C@@H]1Cc2nn(-c3ccccc3OC)c(-c3ccc(C#N)cc3)c2C1` [Compound 134, 4-[(5S)-5-(2-ethyl-1H-imidazol-1-yl)-2-(2-methoxyphenyl)-2,4,5,6-tetrahydrocyclopenta[c]pyrazol-3-yl]benzonitrile], in assay [2], the inhibition at 0.33 µM worked out at 50% and the IC50 worked out at 200 nM.

Regarding `COc1ccccc1-n1nc2c(c1-c1ccc(C#N)cc1)C[C@H](n1ccnc1C)C2` [Compound 135, 4-[(5S)-2-(2-methoxyphenyl)-5-(2-methyl-1H-imidazol-1-yl)-2,4,5,6-tetrahydrocyclopenta[c]pyrazol-3-yl]benzonitrile], the inhibition at 0.33 µM in assay [2] is 44%.

In the case of `CCc1nnn([C@@H]2Cc3nn(-c4ccccc4OC)c(-c4ccc(C#N)cc4)c3C2)c1CC` [Compound 136, 4-[(5S)-5-(4,5-diethyl-1H-1,2,3-triazol-1-yl)-2-(2-methoxyphenyl)-2,4,5,6-tetrahydrocyclopenta[c]pyrazol-3-yl]benzonitrile], in assay [2], the inhibition at 0.33 µM is 89% and the IC50 worked out at 16 nM.

Turning to `CCc1nc(CC)n([C@@H]2Cc3nn(-c4ccccc4OC)c(-c4ccc(C#N)cc4)c3C2)c1CC` [Compound 137, 4-[(5S)-2-(2-methoxyphenyl)-5-(2,4,5-triethyl-1H-imidazol-1-yl)-2,4,5,6-tetrahydrocyclopenta[c]pyrazol-3-yl]benzonitrile], in assay [2], the inhibition at 0.33 µM turned out to be 49%.

As to `CCc1nc(C)n([C@@H]2Cc3nn(-c4ccccc4OC)c(-c4ccc(C#N)cc4)c3C2)c1CC` [Compound 138, 4-[(5S)-5-(4,5-diethyl-2-methyl-1H-imidazol-1-yl)-2-(2-methoxyphenyl)-2,4,5,6-tetrahydrocyclopenta[c]pyrazol-3-yl]benzonitrile], in assay [2], the inhibition at 0.33 µM is 63% and the IC50 was 320 nM.
